This note sets out measurements from publication PMC3104405 (Biochemical and biophysical research communications, 2011).

In test [1] the target is T1, anthrax lethal factor (LF) (Bacillus anthracis, UniProt P15917).
Test [2] deals with T1, anthrax lethal factor (LF). The settings on record: for Km / kcat / kcat/Km: pH 7.4.

Values joined by “and” are separate entries in the source; they are usually repeats but may differ in a detail not shown here. Identical values can stand only once. Like-named read-outs stand apart in the source and are kept apart here.

T1 sequence (P15917 34-809 limits assumed): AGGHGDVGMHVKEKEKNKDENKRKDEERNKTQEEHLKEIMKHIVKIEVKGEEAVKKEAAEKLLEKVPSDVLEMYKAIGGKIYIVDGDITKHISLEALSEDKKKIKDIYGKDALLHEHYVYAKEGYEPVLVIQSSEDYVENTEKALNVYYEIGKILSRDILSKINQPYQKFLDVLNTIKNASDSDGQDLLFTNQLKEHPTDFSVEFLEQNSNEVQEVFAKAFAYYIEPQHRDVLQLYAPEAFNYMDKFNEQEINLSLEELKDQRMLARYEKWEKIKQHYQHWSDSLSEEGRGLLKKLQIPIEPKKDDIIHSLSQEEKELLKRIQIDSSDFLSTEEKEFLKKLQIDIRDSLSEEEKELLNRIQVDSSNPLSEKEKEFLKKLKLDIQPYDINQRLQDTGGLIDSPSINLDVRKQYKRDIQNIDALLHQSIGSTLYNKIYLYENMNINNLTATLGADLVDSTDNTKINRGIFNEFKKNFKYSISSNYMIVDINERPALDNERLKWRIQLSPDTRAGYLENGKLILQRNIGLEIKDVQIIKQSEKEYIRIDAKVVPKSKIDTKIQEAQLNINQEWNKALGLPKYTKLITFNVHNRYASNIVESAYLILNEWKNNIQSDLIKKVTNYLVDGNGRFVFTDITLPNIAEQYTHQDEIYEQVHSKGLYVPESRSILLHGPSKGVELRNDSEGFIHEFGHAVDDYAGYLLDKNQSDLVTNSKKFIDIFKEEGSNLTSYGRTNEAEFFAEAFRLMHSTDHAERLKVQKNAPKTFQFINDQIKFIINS

Turning to Mca-KKPTP-IQLN-Dnp [Substrate 1], the kcat/Km in test [1] is 1.5 min^−1 M^−1 and 1.5 ^a min^−1 M^−1.
For the substance Mca-KKVYP-YPMEK-Dnp [Substrate 2], in test [2], the Km worked out at 58.5 µM, the catalytic constant (kcat) is 74.17 s⁻¹ and the catalytic efficiency (kcat/Km) was found to be 1.27 M⁻¹ s⁻¹.
Mca-KKWLM-YPLEK-Dnp [Substrate 3]: in test [2], the “fold higher kcat/Km than substrate No. 2” value is listed as “about two-fold”, the Km is 16.9 µM, the kcat worked out at 39.83 s⁻¹ and the catalytic efficiency (kcat/Km) came out at 2.33 M⁻¹ s⁻¹.
